Values of other authors as cited in publication PMC4832855 (Cancer Science, 2016).
pIC50: −log10 of the molar value.

How the values were obtained:
Conditions in all cases: cited from earlier work
[1] = system: IR
[2] = system: AurA
[3] = system: Met
[4] = system: patients
[5] = system: Src
[6] = system: p381
[7] = system: Btc
[8] = system: Jak2
[9] = system: IGF‐1R
[10] = system: Lck
[11] = system: AurB

C[C@]1(O)C[C@@H](c2nc(-c3ccc4ccc(-c5ccccc5)nc4c3)c3c(N)nccn32)C1 [Linsitinib]
pIC50 [1]: 7.12 | pIC50 [2]: < 5.00 | pIC50 [3]: < 5.00 | Activity as monotherapy in early clinical trials [4]: only modest activity | Overall or progression‐free survival compared to placebo ([4]; monotherapy, phase III, metastatic adrenocortical carcinoma): did not increase | pIC50 [5]: < 5.00 | pIC50 [6]: < 5.00 | pIC50 [7]: < 5.00 | pIC50 [8]: < 5.00 | pIC50 [9]: […] | pIC50 [10]: < 5.00 | pIC50 [11]: < 5.00

C[C@@]1(C(=O)Nc2ccc(F)nc2)CCCN1c1nc(Nc2cc(C3CC3)n[nH]2)c2cccn2n1 [BMS‐754807]
Activity as monotherapy in early clinical trials [4]: only modest activity
